Measured values reported in publication PMC9975698, “Hyperoside alleviates toxicity of β-amyloid via endoplasmic reticulum-mitochondrial calcium signal transduction cascade in APP/PS1 double transgenic Alzheimer's disease mice” (Redox Biology, 2023).

Columns and labels:
APP = test: Real-time quantitative PCR of APP mRNA in HT22 cells; format: cell-based; details: HT22 cells after HYP treatment
Procedure: RNA was extracted from the HT22 cell using FavorPrep™ Blood/Cultured Cell Total RNA Purification Mini Kit (Favorgen Biotech Corp.). RNA concentration was determined using the NanoDrop 2000c Spectrophotometer (Thermo Scientific). 1 μg of total RNA was used to reverse transcribe to its corresponding cDNA by using the Transcriptor Universal cDNA Master mix (Roche, USA). Quantitative PCR was then performed with the addition of PowerUp™ SYBR® Green Master Mix (Applied Biosystems) using the ViiA™ 7 Real-Time PCR System (Applied Biosystems). Specific primers (Tech Dragon Ltd., Hong Kong) were designed by employing ThermoFisher Scientific's online OligoPerfect™ Designer software and then verified with NCBI's Primer‐BLAST software to confirm specific recognition of the target genes. Gene expression levels were normalized to actin (control) and analyzed using the ΔΔCT method. Three independent experiments with three replicates per group were analyzed for each primer.

β-secretase = target: T1, β-secretase (Mus musculus, UniProt P56818); test: BACE-1 inhibition assay (β-secretase activity in HT22 cell lysate); format: cell-based; details: HT22 cells, HYP 20–80 μM, 24 h
T1 construct: 50 μL supernatant (cell lysate) was transferred to each well in the 96-well plate; endogenous in cells; host or cells: HT22 cells
Procedure: The assay was performed in a 96-well flat-bottom white plate using β-Secretase Activity Fluorometric Assay Kit (Biovision, CA, USA). To begin, HT22 cells were treated with HYP (20–80 μM) for 24 h and then collected by centrifugation with ice-cold extraction buffer added for homogenization. After centrifugation, 50 μL supernatant (cell lysate) was transferred to each well in the 96-well plate. 2 μL of active β-secretase (protein concentration: 4 μg/μL) was added to the 50 μL of extraction buffer as the positive control. For negative control, 2 μL of the β-secretase inhibitor was added to the 50 μL of sample well. 2 μL of each of the tested samples were added into each sample well for inhibitory activity evaluation. Following compounds addition, 50 μL of 2X reaction buffer was added with a gentle mix and incubation for 20 min at 37 °C before adding 2 μL of the β-secretase substrate. The plate was then covered and incubated in the dark at 37 °C for 1 h. Samples were then measured in a fluorescent 96-well plate reader (Ex/Em = 345/500 nm). Background readings produced from the substrate without adding secretase were subtracted from all samples.

APP and APP-β = test: Western blot of APP and APP-β in HT22 cells; format: cell-based
Procedure: After HYP treatment, the cells were lysed with RIPA. Protein concentrations were determined by Bio-Rad protein assay (Bio-Rad Laboratories, CA, USA). After electrophoretic separation, the gels were blotted and stained with primary antibodies. Binding of antibodies was visualized with peroxidase-coupled secondary antibodies using ECL Western Blotting detection reagents (Invitrogen, Scotland, UK). Band intensities were quantified using ImageJ software. Data were obtained from three independent experiments.

[1] = system: Aβ oligomers, Aβ fibrils, Aβ (1–16); test: Dot blot of Aβ forms in HT22 cells; format: cell-based
Procedure: 4 μL of prepared cell or animal sample protein solutions were dotted for adsorption onto methanol-pre-activated PVDF membranes and then blocked with 5% non-fat dry milk in Tris-buffered saline and Tween 20 for 1 h. The samples were incubated overnight at 4 °C with anti-amyloid fibril primary antibody [mOC87] (Abcam, MA, USA), anti-amyloid oligomer A11 (Invitrogen, CA, USA) or purified anti-β-amyloid (1–16) antibody (clone 6E10) (Biolegend, CA, USA) (1:1000), followed by HRP-conjugated secondary antibody. Protein bands were detected using Super Signal Sensitive ECL Western Blotting Detection Reagent (Beyotime, Beijing, China) and observed using a gel imaging device (Amersham Imager 800, GE, Tokyo, Japan).

APP/PS1 mice [2] = test: HE staining of hippocampus; format: in vivo; details: hippocampus CA1, CA3, DG, nasal HYP
Procedure: All animal care and experimental procedures were performed in accordance with the “Institutional Animal Care and User Committee Guidelines” of the Macau University of Science and Technology. APP/PSEN1 (APP/PS1) mice (N000175) were purchased from the Nanjing Institute of Biomedical Sciences, Nanjing University, China, weighing 25 ± 5 g. The animals were housed in a temperature-controlled room with a 12 h light/dark cycle and given ad libitum food and water. Male mice were randomly divided into the following 6 experimental groups. (a) wild-type group (n = 6), (b) APP/PS1 group (n = 6), (c) HYP (20 mg/kg group) (n = 7), (d) HYP (40 mg/kg) group (n = 8), (e) HYP (80 mg/kg) group (n = 8) and (f) memantine (MEM) (10 mg/kg) positive control group (n = 8). HYP was dissolved in the solvent containing 10% DMSO, 40% PEG300 and 5% Tween-80 in PBS, and administrated via nasal injection for every 3 days with a volume of 0.5 μL/g of body weight for 8 consecutive weeks. Pathological assessment on the cornuammonis region 1 (CA1), cornuammonis region 3 (CA3) and dentate gyrus region (DG) regions of the mouse hippocampus was done by HE staining. Brain sections were dehydrated with 70%, 80% and 90% alcohol respectively. […]

APP/PS1 mice [3] = test: RT-PCR validation of calcium-related genes in mice; format: in vivo; details: HYP group compared to APP/PS1 group
Procedure: To investigate the molecular mechanism of HYP, initial data (36,668 raw reads) obtained from the RNA sequencing were performed. […] In GO classification, the unigenes were annotated in three major categories (Fig. 8B). […] For the biological process category, most of the unigenes were matched to immune and signaling processes. For the cellular component category, most of the unigenes were assigned to cell and cell part. For the molecular function category, binding activity accounted for the largest proportion. […] Gene set enrichment analysis (GSEA) has been extensively applied to identify underlying pathways. In Fig. 8D, GSEA analysis of calcium channels was performed in conjunction with the previous AD hypothesis. Next, the relative expression levels of the hub genes in the APP and HYP-treated mice groups were examined by RT-PCR analysis.

T1 sequence (P56818 46-501): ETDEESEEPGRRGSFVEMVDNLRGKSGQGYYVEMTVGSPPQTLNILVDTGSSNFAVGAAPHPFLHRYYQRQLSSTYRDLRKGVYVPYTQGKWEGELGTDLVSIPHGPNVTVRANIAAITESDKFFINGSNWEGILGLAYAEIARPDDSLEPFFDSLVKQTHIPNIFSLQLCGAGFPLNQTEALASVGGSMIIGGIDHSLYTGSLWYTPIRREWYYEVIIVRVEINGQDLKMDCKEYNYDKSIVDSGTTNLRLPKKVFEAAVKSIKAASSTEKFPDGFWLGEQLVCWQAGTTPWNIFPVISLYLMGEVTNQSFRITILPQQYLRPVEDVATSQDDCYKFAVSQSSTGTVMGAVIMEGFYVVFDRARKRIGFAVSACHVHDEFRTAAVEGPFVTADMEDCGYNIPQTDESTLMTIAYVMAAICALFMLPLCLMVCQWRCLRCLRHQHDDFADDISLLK

SMILES: O=c1c(O[C@@H]2O[C@H](CO)[C@H](O)[C@H](O)[C@H]2O)c(-c2ccc(O)c(O)c2)oc2cc(O)cc(O)c12 [HYP, Quercetin-3-O-β-D-galactopyranoside]
- mRNA transcriptional level of APP (APP): no significant effect
- β-secretase activity (β-secretase): inhibited β-secretase activity
- protein level of APP and APP-β (APP and APP-β): reduced the protein level of both APP and APP-β
- level of different form of Aβ ([1]; HT22 cells incubated with exogenous Aβ for 24 h): lowered the level of different form of Aβ
- endogenous level of Aβ oligomers, Aβ fibrils and total Aβ (1–16) ([1]; HT22 cells without exogenous Aβ): lowered the endogenous level of Aβ Oligomers (A11), Aβ Fibrils (mOC87) and total Aβ (1–16) (6E10)
- neuronal cell morphology (HE staining) (APP/PS1 mice [2]): neuronal cell morphological changes were minimal
- mRNA expression levels of calcium-related genes (APP/PS1 mice [3]): mRNA expression levels of Cav2.3, Cav1.3, NCLX and TRPV4 were decreased
